Consider 28 compounds from US10323022B2, “Pyrrolidinyl urea, pyrrolidinyl thiourea and pyrrolidinyl guanidine compounds as TrkA kinase inhibitors” (Array BioPharma Inc., priority 2011, dated 2019).

The IC50 is the concentration that inhibits the measured activity by half.

Bounds are passed on as bounds.

Sequence of TrkA (P04629 33-796): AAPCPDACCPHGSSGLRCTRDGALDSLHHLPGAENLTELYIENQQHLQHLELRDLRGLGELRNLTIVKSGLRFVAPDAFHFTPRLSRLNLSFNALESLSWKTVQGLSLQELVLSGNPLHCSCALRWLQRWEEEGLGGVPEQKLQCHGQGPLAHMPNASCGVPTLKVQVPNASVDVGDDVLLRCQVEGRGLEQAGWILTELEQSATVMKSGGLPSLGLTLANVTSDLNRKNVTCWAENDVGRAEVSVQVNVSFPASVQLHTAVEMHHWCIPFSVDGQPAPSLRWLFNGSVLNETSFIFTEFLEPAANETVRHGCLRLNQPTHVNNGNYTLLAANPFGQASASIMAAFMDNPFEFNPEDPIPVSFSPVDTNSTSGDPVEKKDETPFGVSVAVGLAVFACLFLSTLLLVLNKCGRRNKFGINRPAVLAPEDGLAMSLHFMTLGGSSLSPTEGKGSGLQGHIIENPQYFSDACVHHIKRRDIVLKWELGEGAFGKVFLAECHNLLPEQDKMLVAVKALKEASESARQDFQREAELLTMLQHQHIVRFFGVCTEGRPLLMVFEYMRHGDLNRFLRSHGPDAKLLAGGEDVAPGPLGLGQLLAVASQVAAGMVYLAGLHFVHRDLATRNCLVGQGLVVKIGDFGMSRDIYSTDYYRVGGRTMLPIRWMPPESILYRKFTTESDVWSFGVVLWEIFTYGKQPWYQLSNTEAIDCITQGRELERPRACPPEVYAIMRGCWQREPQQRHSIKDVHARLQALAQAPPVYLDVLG

This experiment concerns the target TrkA (Homo sapiens (Human), UniProt P04629). Kind of experiment: TrkA Omnia Assay. Format: biochemical. As to conditions: averaged IC50; 20 nM enzyme, 500 μM ATP, 10 μM peptide substrate. In a few lines:
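Continuous fluorescent kinase read-out (ex 360 nm, em 485 nm) over 70 min, with initial rates fitted to 4- or 5-parameter logistic curves for IC50. Final conditions: 500 μM ATP, 10 μM Omnia Tyr Peptide #4, 20 nM TrkA, MOPS pH 7.5 buffer with MgCl2 and Triton X-100; enzyme and compound preincubated 10 min at ambient temperature.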
`COCCN1C[C@@H](NC(=O)Nc2c(Cl)c(-c3ccccc3)nn2-c2ccccc2)[C@H](c2cc(F)cc(F)c2)C1` [Example 426, 1-(4-chloro-1,3-diphenyl-1H-pyrazol-5-yl)-3-((3S,4R)-4-(3,5-difluorophenyl)-1-(2-methoxyethyl)pyrrolidin-3-yl)urea]: the IC50 was under 100 nM.

`COCCN1C[C@@H](NC(=O)Nc2c(Br)c(-c3ccccc3)nn2-c2ccccc2)[C@H](c2cc(F)cc(F)c2)C1` [Example 427, 1-(4-bromo-1,3-diphenyl-1H-pyrazol-5-yl)-3-((3S,4R)-4-(3,5-difluorophenyl)-1-(2-methoxyethyl)pyrrolidin-3-yl)urea] yielded a concentration for half-maximal inhibition (IC50) of under 100 nM.

In turn, `COCCN1C[C@@H](NC(=O)Nc2c(Br)c(-c3ccccc3)nn2-c2ccccc2)[C@H](c2ccc(F)cc2)C1` [Example 428, 1-(4-bromo-1,3-diphenyl-1H-pyrazol-5-yl)-3-((3S,4R)-4-(4-fluorophenyl)-1-(2-methoxyethyl)pyrrolidin-3-yl)urea] displayed a 50% inhibitory concentration (IC50) of under 100 nM.

As for `COCCN1C[C@@H](NC(=O)Nc2c(F)c(-c3cnn(C)c3)nn2-c2ccccc2)[C@H](c2cncc(F)c2)C1` [Example 432, 1-(4-fluoro-1′-methyl-1-phenyl-1H,1′H-[3,4′-bipyrazol]-5-yl)-3-((3S,4R)-4-(5-fluoropyridin-3-yl)-1-(2-methoxyethyl)pyrrolidin-3-yl)urea], the half-inhibitory concentration (IC50) fell in the range of 100 to 1000 nM.

On to `COCCN1C[C@@H](NC(=O)Nc2c(Br)c(C)nn2-c2ccccc2)[C@H](c2cncc(F)c2)C1` [Example 433], for which the 50% inhibitory concentration (IC50) was under 100 nM.

For `COCCN1C[C@@H](NC(=O)Nc2c(Cl)c(C)nn2-c2ccccc2)[C@H](c2cncc(F)c2)C1` [Example 434], the IC50 was under 100 nM.

Compound `COCCN1C[C@@H](NC(=O)Nc2c(F)c(-c3cnn(C)c3)nn2-c2ccccc2)[C@H](c2ccc(F)c(F)c2)C1` [Example 438, 1-((3S,4R)-4-(3,4-difluorophenyl)-1-(2-methoxyethyl)pyrrolidin-3-yl)-3-(4-fluoro-1′-methyl-1-phenyl-1H,1′H-[3,4′-bipyrazol]-5-yl)urea] yielded a concentration for half-maximal inhibition (IC50) of under 100 nM.

For `COCCN1C[C@@H](NC(=O)Nc2c(F)c(-c3cnn(C)c3)nn2-c2ccccc2)[C@H](c2cc(F)cc(F)c2)C1` [Example 439, 1-((3S,4R)-4-(3,5-difluorophenyl)-1-(2-methoxyethyl)pyrrolidin-3-yl)-3-(4-fluoro-1′-methyl-1-phenyl-1H,1′H-[3,4′-bipyrazol]-5-yl)urea], the 50% inhibitory concentration (IC50) is under 100 nM.

On to `COCCN1C[C@@H](NC(=O)Nc2c(Br)c(-c3cnn(C)c3)nn2-c2ccccc2)[C@H](c2cncc(F)c2)C1` [Example 440, 1-(4-bromo-1′-methyl-1-phenyl-1H,1′H-[3,4′-bipyrazol]-5-yl)-3-((3S,4R)-4-(5-fluoropyridin-3-yl)-1-(2-methoxyethyl)pyrrolidin-3-yl)urea], for which the IC50 was under 100 nM.

On to `COCCN1C[C@@H](NC(=O)Nc2c(C)c(-c3cnn(C)c3)nn2-c2ccccc2)[C@H](c2ccc(F)cc2)C1` [Example 441, 1-(1′,4-dimethyl-1-phenyl-1H, 1′H-[3,4′-bipyrazol]-5-yl)-3-((3S,4R)-4-(4-fluorophenyl)-1-(2-methoxyethyl)pyrrolidin-3-yl)urea], for which the IC50 is under 100 nM.

In turn, `COCCN1C[C@@H](NC(=O)Nc2c(C)c(-c3cnn(C)c3)nn2-c2ccccc2)[C@H](c2cc(F)cc(F)c2)C1` [Example 442, 1-(1′,4-dimethyl-1-phenyl-1H, 1′H-[3,4′-bipyrazol]-5-yl)-3-((3S,4R)-4-(3,5-difluorophenyl)-1-(2-methoxyethyl)pyrrolidin-3-yl)urea] had an IC50 of under 100 nM.

Regarding `COCCN1C[C@@H](NC(=O)Nc2c(C)c(-c3cnn(C)c3)nn2-c2ccccc2)[C@H](c2cc(F)c(F)c(F)c2)C1` [Example 443, 1-(1′,4-dimethyl-1-phenyl-1H, 1′H-[3,4′-bipyrazol]-5-yl)-3-((3S,4R)-4-(3,4,5-trifluorophenyl)-1-(2-methoxyethyl)pyrrolidin-3-yl)urea], the IC50 is under 100 nM.

`COCCN1C[C@@H](NC(=O)Nc2c(C)c(-c3cnn(Cc4ccc(OC)cc4)c3)nn2-c2ccccc2)[C@H](c2ccc(F)c(F)c2)C1` [Example 446, 1-((3S,4R)-4-(3,4-difluorophenyl)-1-(2-methoxyethyl)pyrrolidin-3-yl)-3-(1′-(4-methoxybenzyl)-4-methyl-1-phenyl-1H, 1′H-[3,4′-bipyrazol]-5-yl)urea] displayed a 50% inhibitory concentration (IC50) of under 100 nM.

The compound `COCCN1C[C@@H](NC(=O)Nc2c(C)c(-c3cn[nH]c3)nn2-c2ccccc2)[C@H](c2ccc(F)c(F)c2)C1` [Example 447] had a half-maximal inhibitory concentration (IC50) of under 100 nM.

The compound `COCCN1C[C@@H](NC(=O)Nc2c(Cl)c(CCOC(C)=O)nn2-c2ccccc2)[C@H](c2ccc(F)c(F)c2)C1` [Example 448, 2-(4-chloro-5-(3-((3S,4R)-4-(3,4-difluorophenyl)-1-(2-methoxyethyl)pyrrolidin-3-yl)ureido)-1-phenyl-1H-pyrazol-3-yl)ethyl acetate] returned an IC50 of under 100 nM.

Consider `COCCN1C[C@@H](NC(=O)Nc2c(Cl)c(CCO)nn2-c2ccccc2)[C@H](c2ccc(F)c(F)c2)C1` [Example 449, 1-(4-chloro-3-(2-hydroxyethyl)-1-phenyl-1H-pyrazol-5-yl)-3-((3S,4R)-4-(3,4-difluorophenyl)-1-(2-methoxyethyl)pyrrolidin-3-yl)urea], for which the IC50 was under 100 nM.

In turn, `COCCN1C[C@@H](NC(=O)Nc2c(C)c([C@H]3C[C@@H](O)C3)nn2-c2ccccc2)[C@H](c2ccc(F)c(F)c2)C1` [Example 450, 1-((3S,4R)-4-(3,4-difluorophenyl)-1-(2-methoxyethyl)pyrrolidin-3-yl)-3-(3-(cis-3-hydroxycyclobutyl)-4-methyl-1-phenyl-1H-pyrazol-5-yl)urea] had a 50% inhibitory concentration (IC50) of under 100 nM.

The compound `COCCN1C[C@@H](NC(=O)Nc2c(C)c([C@H]3C[C@H](O)C3)nn2-c2ccccc2)[C@H](c2ccc(F)c(F)c2)C1` [Example 451, 1-((3S,4R)-4-(3,4-difluorophenyl)-1-(2-methoxyethyl)pyrrolidin-3-yl)-3-(3-(trans-3-hydroxycyclobutyl)-4-methyl-1-phenyl-1H-pyrazol-5-yl)urea] gave a half-maximal inhibitory concentration (IC50) of under 100 nM.

`COCCN1C[C@@H](NC(=O)Nc2c(Cl)c([C@H]3C[C@@H](O)C3)nn2-c2ccccc2)[C@H](c2ccc(F)c(F)c2)C1` [Example 452, 1-(4-chloro-3-(cis-3-hydroxvcyclobutyl)-1-phenyl-1H-pyrazol-5-yl)-3-((3S,4R)-4-(3,4-difluorophenyl)-1-(2-methoxyethyl)pyrrolidin-3-yl)urea] showed an IC50 of under 100 nM.

The compound `COCCN1C[C@@H](NC(=O)Nc2c(Cl)c([C@H]3C[C@H](O)C3)nn2-c2ccccc2)[C@H](c2ccc(F)c(F)c2)C1` [Example 453, 1-(4-chloro-3-((1r,3S)-3-hydroxycyclobutyl)-1-phenyl-1H-pyrazol-5-yl)-3-(trans-4-(3,4-difluorophenyl)-1-(2-methoxyethyl)pyrrolidin-3-yl)urea] returned an IC50 of under 100 nM.

The compound `COCCN1C[C@@H](NC(=O)Nc2c(C)c([C@H]3C[C@@H](O)C3)nn2-c2ccccc2)[C@H](c2ccc(F)cc2)C1` [Example 454, 1-((3S,4R)-4-(4-fluorophenyl)-1-(2-methoxyethyl)pyrrolidin-3-yl)-3-(3-(cis-3-hydroxycyclobutyl)-4-methyl-1-phenyl-1H-pyrazol-5-yl)urea] had an IC50 of under 100 nM.

The compound `COCCN1C[C@@H](NC(=O)Nc2c(C)c([C@H]3C[C@H](O)C3)nn2-c2ccccc2)[C@H](c2ccc(F)cc2)C1` [Example 455, 1-((3S,4R)-4-(4-fluorophenyl)-1-(2-methoxyethyl)pyrrolidin-3-yl)-3-(3-(trans-3-hydroxycyclobutyl)-4-methyl-1-phenyl-1H-pyrazol-5-yl)urea] came in with an IC50 of under 100 nM.

For the compound `COCCN1C[C@@H](NC(=O)Nc2c(C)c([C@H]3C[C@@H](O)C3)nn2-c2ccccc2)[C@H](c2cc(F)cc(F)c2)C1` [Example 456, 1-((3S,4R)-4-(3,5-difluorophenyl)-1-(2-methoxyethyl)pyrrolidin-3-yl)-3-(3-(cis-3-hydroxycyclobutyl)-4-methyl-1-phenyl-1H-pyrazol-5-yl)urea], the half-inhibitory concentration (IC50) is under 100 nM.

Compound `COCCN1C[C@@H](NC(=O)Nc2c(C)c([C@H]3C[C@H](O)C3)nn2-c2ccccc2)[C@H](c2cc(F)cc(F)c2)C1` [Example 457, 1-((3S,4R)-4-(3,5-difluorophenyl)-1-(2-methoxyethyl)pyrrolidin-3-yl)-3-(3-(trans-3-hydroxycyclobutyl)-4-methyl-1-phenyl-1H-pyrazol-5-yl)urea] came in with an IC50 of under 100 nM.

As for `COCCN1C[C@@H](NC(=O)Nc2c(C)c(C(=O)O)nn2-c2ccccc2)[C@H](c2ccc(F)c(F)c2)C1` [Example 458, 5-(3-((3S,4R)-4-(3,4-difluorophenyl)-1-(2-methoxyethyl)pyrroidin-3-yl)ureido)-4-methyl-1-phenyl-1H-pyrazole-3-carboxylic acid], the concentration for half-maximal inhibition (IC50) was 100 to 1000 nM.

Compound `CNC(=O)c1nn(-c2ccccc2)c(NC(=O)N[C@@H]2CN(CCOC)C[C@H]2c2ccc(F)c(F)c2)c1C` [Example 459, 5-(3-((3S,4R)-4-(3,4-difluorophenyl)-1-(2-methoxyethyl)pyrrolidin-3-yl)ureido)-N,4-dimethyl-1-phenyl-1H-pyrazole-3-carboxamide] returned an IC50 of under 100 nM.

`COCCN1C[C@@H](NC(=O)Nc2c(C)c(C(=O)N(C)C)nn2-c2ccccc2)[C@H](c2ccc(F)c(F)c2)C1` [Example 460, 5-(3-((3S,4R)-4-(3,4-difluorophenyl)-1-(2-methoxyethyl)pyrrolidin-3-yl)ureido)-N,N,4-trimethyl-1-phenyl-1H-pyrazole-3-carboxamide] showed a half-inhibitory concentration (IC50) of under 100 nM.

`CCNC(=O)c1nn(-c2ccccc2)c(NC(=O)N[C@@H]2CN(CCOC)C[C@H]2c2ccc(F)c(F)c2)c1C` [Example 461, 5-(3-((3S,4R)-4-(3,4-difluorophenyl)-1-(2-methoxyethyl)pyrrolidin-3-yl)ureido)-N-ethyl-4-methyl-1-phenyl-1H-pyrazole-3-carboxamide] yielded a half-maximal inhibitory concentration (IC50) of under 100 nM.
